# Patent US9353152B2, “Induction of the mitochondrial permeability transition” (NewSouth Innovations Pty Limited, priority 2002, dated 2016)
# Entries after “also recorded” stand apart in the source; their conditions may differ. Read-outs that look alike come from different tables or passages of the source. Residues, ends and D or L forms follow the SMILES beside them. *: point of attachment. X2 = O=C(C*)Nc1ccc([As](O)O)cc1; X1 = O=C(C*)Nc1ccccc1[As](O)O
# Key:
# [1] = biological target: T1, MPTP (Rattus norvegicus, UniProt Q09073); type: biochemical
# T1 construct: Mitochondria were isolated from the livers of ˜250 g male Wistar rats; from tissue; host or cells: rat liver mitochondria (male Wistar rats)
# T1 sequence (Q09073 2-298 limits assumed): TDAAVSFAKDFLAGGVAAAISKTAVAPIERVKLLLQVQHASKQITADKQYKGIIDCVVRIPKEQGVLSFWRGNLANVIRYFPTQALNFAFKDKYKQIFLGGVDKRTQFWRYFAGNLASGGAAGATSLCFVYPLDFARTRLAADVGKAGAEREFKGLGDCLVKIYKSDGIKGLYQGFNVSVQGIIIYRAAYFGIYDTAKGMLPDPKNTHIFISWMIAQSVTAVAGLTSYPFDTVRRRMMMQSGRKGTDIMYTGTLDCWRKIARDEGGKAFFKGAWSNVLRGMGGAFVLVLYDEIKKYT
# [2] = system: BAE cells
# [3] = biological target: T1, MPTP; test: Mitochondria swelling assay (MPT induction, decrease in light scattering at 520 nm); type: biochemical; conditions: for blocking of the effect of GSAO on pore opening: 100 μM GSAO with 3 mM Mg^2+, 100 μM EGTA, 10 μM BKA, 5 μM CsA or 8 mM ADP; for swelling of isolated rat liver mitochondria: GSAO 25-200 μM, GSAA, GSCA 100 μM, 60 min
# [4] = system: BAE cells; test: Cell viability assay, attached cells (methylene blue), proliferating or growth-quiescent cells; type: cell-based, bovine
# Experimental: BAE or HMEC-1 cells were seeded at a density of 10^4 cells per cell into 96 well plates and allowed to adhere overnight and then treated as indicated.
# [5] = system: BAE cells; type: cell-based, bovine
# [6] = system: CAM angiogenesis; test: Chick chorioallantoic membrane (CAM) angiogenesis assay; type: in vivo; conditions: 5, 10 or 50 μg per pellet, 48 h
# Experimental: Fertilised 3 day-old white Leghorn eggs (Spafas, Norwich, Conn.) were cracked, the embryos with intact yolks placed in 20×100 mm petri dishes and incubated for 3 days at 37° C. and 3% CO2 (Folkman, 1985). Methylcellulose (Fisher Scientific, Fair Lawn, N.J.) discs containing 5, 10 or 50 μg of either GSAA or GSAO were then applied to the CAM of individual embryos and incubated for 48 h at 37° C. and 3% CO2. The discs were made by desiccation of GSAA or GSAO in 10 μl of 0.45% methycellulose on teflon rods. The CAMs were observed using a stereomicroscope and scored for no obvious affect or inhibition of CAM angiogenesis as defined by avascular zones. On some occasions CAM blood vessels were injected with India ink and photographed.
# [7] = system: BxPC-3 tumours; test: Primary tumour growth assay; type: in vivo, SCID mice; conditions: 10 mg/kg/day s.c., all experiments (BxPC-3, HT1080, LLC)
# Experimental: (§1) Female 7 to 9 week old SCID or C57Bl6/J mice were used (Massachusetts General Hospital, Boston, Mass.). Mice were held in groups of 3 to 5 at a 12 hour day and night cycle and were given animal chow and water ad libidum. SCID or C57Bl6/J mice were anaesthetised by inhalation of isoflurane, the dorsal skin shaved and cleaned with ethanol, and a suspension of 2.5×10^6 BxPC-3, HT1080 or LLC cells in 0.2 mL of PBS, or saline for LLC cells, was injected S.C. in the proximal midline. LLC cells were prepared according to O'Reilly et al. (1997). Tumour volume was calculated using the relationship, a·b^2·0.52, where a is the longest and b the shortest diameter.
# [8] = Tolerability in tumour-bearing mice; type: in vivo, SCID or C57Bl6/J mice
# Experimental: as §1
# [9] = system: BAE cells; test: cells; conditions: Bos taurus, read-out: IC50 (μM)*
# [10] = biological target: T2, mitochondrial permeability transition pore (Rattus norvegicus, UniProt Q09073); type: biochemical
# T2 construct: Mitochondria were isolated from the livers of ˜250 g male Wistar rats; from tissue; host or cells: rat liver mitochondria (male Wistar rats)
# T2 sequence (Q09073 2-298 limits assumed): T1 sequence (Q09073 2-298 limits assumed)
smiles,measurement,setting,value
"O=C(CSCCCS(=O)(=O)O)Nc1ccc([As](O)O)cc1 [Compound 10, 3-S—(CH2CONHC6H4-p-As{OH}2)-1-propanesulfonic acid]",MPTP Swelling Rate Increase/GSAO* Mean,[1],2.0
same,Fold Increase,[2],0.21
same,IC50,[2]; read-out: IC50 (μM)*,39 µM
"N=C(N)NCCC[C@H](N)C(=O)NCC(=O)N[C@@H](CC(=O)O)C(=O)N[C@@H](CSCC(=O)Nc1ccc([As](O)O)cc1)C(=O)O [Compound 6, H-Arg-Gly-Asp-Cys(CH2CONHC6H4-p-As{OH}2)—OH] (H-RGDC(X2)-OH)",MPTP Swelling Rate Increase/GSAO* Mean,[1],4.5
same,Fold Increase,[2],0.45
same,IC50,[2]; read-out: IC50 (μM)*,18.2 µM
"O=C(CS[C@@H]1O[C@H](CO)[C@@H](O)[C@H](O)[C@H]1O)Nc1ccc([As](O)O)cc1 [Compound 14, 1-S—(CH2CONHC6H4-p-As{OH}2)-β-D-glucose]",MPTP Swelling Rate Increase/GSAO* Mean,[1],1.1
same,Fold Increase,[2],0.08
same,IC50,[2]; read-out: IC50 (μM)*,106 µM
"CO[C@H](C/C=C\C=C\CC/C=C/C[C@H](C)/C=C/C(=C\C(=O)O)CC(=O)O)/C(C)=C\C=C(/C)C(=O)O [BKA, Bonkrekic acid]",blocking of the effect of GSAO on pore opening,[3],blocked
"CC(C)C(N)C(=O)NC(C(=O)NC(CSCC(=O)Nc1ccccc1[As](O)O)C(=O)NCC(=O)O)C(C)O (stereo not drawn) [Compound 23, H-Val-Thr-Cys(CH2CONHC6H4-o-As{OH}2)-Gly-OH] (H-VTC(X1)G-OH; configuration not given here)",MPTP Swelling Rate Increase/GSAO* Mean,[1],5.4
same,Fold Increase,[2],19.8
same,times more active than the corresponding p-arsenoxide analogue,[2],approximately 20 times
same,IC50,[2]; read-out: IC50 (μM)*,0.42 µM
"N[C@@H](CCC(=O)N[C@@H](CSCC(=O)Nc1ccc([As](=O)(O)O)cc1)C(=O)NCC(=O)O)C(=O)O [GSAA, 4-(N—((S-glutathionyl)acetyl)amino)-benzenearsonic acid, reference compound]",swelling of isolated rat liver mitochondria,[3],without effect
same,effect on the viability of proliferating BAE cells,[4],no significant effect
same,effect on O2^− or H2O2 levels,[5],no effect
same,inhibition of CAM angiogenesis (avascular zones),[6],did not inhibit CAM angiogenesis; also recorded: no affects
same,inhibition of the rate of tumour growth compared to vehicle alone,[7],< 20%
same,adverse affects of administration,[8]; 10 mg/kg/day s.c.,no apparent adverse affects
same,"morphological changes in the heart, lungs, liver, kidneys, and spleen",[8]; 10 mg/kg/day s.c.,no morphological changes
same,average mice weights over the course of the experiments,[8]; GSAO versus GSAA treatment groups,the same
"CC(C)C(N)C(=O)NC(C(=O)NC(CSCC(=O)Nc1ccc([As](O)O)cc1)C(=O)NCC(=O)O)C(C)O (stereo not drawn) [Compound 8, H-Val-Thr-Cys(CH2CONHC6H4-p-As{OH}2)-Gly-OH] (H-VTC(X2)G-OH; configuration not given here)",MPTP Swelling Rate Increase/GSAO* Mean,[1],2.1
same,Fold Increase,[2],0.95
same,IC50,[9],8.8 µM
"N[C@@H](CCC(=O)N[C@@H](CSCC(=O)Nc1ccc(C(=O)O)cc1)C(=O)NCC(=O)O)C(=O)O [GSCA, 4-(N—((S-glutathionyl)acetyl)amino)benzoic acid]",swelling of isolated rat liver mitochondria,[3],without effect
same,effect on the viability of proliferating BAE cells,[4]; concentrations up to 1.0 mM,no significant effect
"O=C(O)CCC(NC(=O)NC(CSCC(=O)Nc1ccc([As](O)O)cc1)C(=O)O)C(=O)O (stereo not drawn) [Compound 3, retro-HO-Cys-(CH2CONHC6H4-p-As{OH}2)-carbonyl-Glu-OH]",MPTP Swelling Rate Increase/GSAO* Mean,[1],2.4
same,Fold Increase,[2],0.07
same,IC50,[2]; read-out: IC50 (μM)*,122 µM
[Mg+2] [Mg^2+],blocking of the effect of GSAO on pore opening,[3],blocked
same,blocking of GSAO-dependent swelling,[10]; FIG. 18 as printed,blocked
"NCC(=O)NCC(=O)NC(CSCC(=O)Nc1ccc([As](O)O)cc1)C(=O)O (stereo not drawn) [Compound 7, H-Gly-Gly-Cys(CH2CONHC6H4-p-As{OH}2)—OH]",MPTP Swelling Rate Increase/GSAO* Mean,[1],2.2
same,Fold Increase,[2],0.44
same,IC50,[9],19 µM
"O=C(O)CN(CCOCCOCCN(CC(=O)O)CC(=O)O)CC(=O)O [EGTA, ethylene glycol-bis(beta-aminoethyl ether)-N,N,N′N′-tetraacetic acid]",blocking of the effect of GSAO on pore opening,[3],blocked
same,blocking of GSAO-dependent swelling,[10],blocked
"O=C(O)CC(SCC(=O)Nc1ccc([As](O)O)cc1)C(=O)O (stereo not drawn) [Compound 13, 1-S—(CH2CONHC6H4-p-As{OH}2)-mercaptosuccinic acid]",MPTP Swelling Rate Increase/GSAO* Mean,[1],1.6
same,Fold Increase,[2],0.19
same,IC50,[2]; read-out: IC50 (μM)*,43.3 µM
Nc1ncnc2c1ncn2[C@@H]1O[C@H](COP(=O)(O)OP(=O)(O)O)[C@@H](O)[C@H]1O [ADP],blocking of the effect of GSAO on pore opening,[3],blocked
same,blocking of the effect of o-GSAO on pore opening,[10],blocked
"NC(=O)CCC(NC(=O)C(Cc1ccccc1)NC(=O)C(Cc1ccc(O)cc1)NC(=O)C(N)CSCC(=O)Nc1ccc([As](O)O)cc1)C(=O)NC(CC(N)=O)C(=O)NC(CSCC(=O)Nc1ccc([As](O)O)cc1)C(=O)O (stereo not drawn) [Compound 9, H-Cys-(CH2CONHC6H4-p-As{OH}2)-Tyr-Phe-Gln-Asn-Cys-(CH2CONHC6H4-p-As{OH}2)—OH] (H-C(X2)YFQNC(X2)-OH; configuration not given here)",Fold Increase,[2],0.64
same,IC50,[2]; 72 h,12.9 µM
"NCC(=O)NCC(=O)N[C@@H](CSCC(=O)Nc1ccccc1[As](O)O)C(=O)O [Compound 22, H-Gly-Gly-Cys(CH2CONHC6H4-o-As{OH}2)—OH]",MPTP Swelling Rate Increase/GSAO* Mean,[1],6.9
same,Fold Increase,[2],46.9
same,times more active than the corresponding p-arsenoxide analogue,[2],approximately 106 times
same,IC50,[2]; read-out: IC50 (μM)*,0.18 µM
"O=C(O)Cn1nnnc1SCC(=O)Nc1ccc([As](O)O)cc1 [Compound 21, 5-S—(CH2CONHC6H4-p-As{OH}2)-1-tetrazolacetic acid]",MPTP Swelling Rate Increase/GSAO* Mean,[1],2.8
same,Fold Increase,[2],0.16
same,IC50,[9],51.3 µM
"O=C(O)CCSCC(=O)Nc1ccc([As](O)O)cc1 [Compound 11, 3-S—(CH2CONHC6H4-p-As{OH}2)-1-propionic acid]",MPTP Swelling Rate Increase/GSAO* Mean,[1],1.3
same,Fold Increase,[2],0.05
same,IC50,[2]; read-out: IC50 (μM)*,170 µM
